Experiments:
[1] = system: IVL gene; assay: Test for amplification of mRNA expression of IVL gene (quantitative real-time PCR, GAPDH internal standard); assay type: cell-based, human; conditions: NHEKs, GDM12 100 μM, culture time 30 hr, control = 1
Protocol: (§1) Normal human epidermal keratinocytes (NHEKs) were seeded on a 96-well plate at a cell density of 2.0×10^4cells/well using HuMedia-KG2 medium (manufactured by Kurabo Industries Ltd.), and cultured under the conditions of 37° C. and 5% CO2 for 24 hours.
(§2) Thereafter, a diacylglycerol PEG adduct was added thereto using HuMedia-KB2 medium (manufactured by Kurabo Industries Ltd.), and each was cultured under the conditions of 37° C. and 5% CO2 for a predetermined time. Table 1 represents the target gene, the types of diacylglycerol PEG adduct added, the adding amount, and the culture time. A control (no addition) was also cultured under the same conditions.
(§3) After the cells were cultured for each predetermined time, RNA was extracted from the cells of each sample and control. The extracted RNA was reverse-transcribed to prepare cDNA, and the mRNA of the target gene was quantified by quantitative real-time PCR expression analysis. GAPDH (glyceraldehyde 3-phosphate dehydrogenase) was used as an internal standard.
(§4) In the analysis, the mRNA expression level of each target gene was corrected with the value of the expression level of GAPDH, which is an internal standard in the same sample, and the correction value of the sample was calculated as a relative expression level when the correction value of the control was set to 1.

[2] = system: LOR gene; assay: Test for amplification of mRNA expression of LOR gene (quantitative real-time PCR, GAPDH internal standard); assay type: cell-based, human; conditions: NHEKs, GDM12 100 μM, culture time 30 hr, control = 1
Protocol: as §1, §2, §3, §4

[3] = system: SULT2B1 gene; assay: Test for amplification of mRNA expression of SULT2B1 gene (quantitative real-time PCR, GAPDH internal standard); assay type: cell-based, human; conditions: NHEKs, control = 1
Protocol: as §1, §2, §3, §4

[4] = system: Three-dimensional cultured human epidermal model; assay: Hematoxylin-eosin staining and DAPI nuclear staining of epidermal model (cell abnormality check); assay type: cell-based; conditions: LabCyte EPI-MODEL24 6D, 50 μL of 2% GDS23 solution applied for 24 hours, collected 9 days after application
Protocol: Treatment of epidermal model Three-dimensional cultured human epidermal model (LabCyte EPI-MODEL24 6D: manufactured by Japan Tissue Engineering Co., Ltd.) was cultured in a medium (assay medium: manufactured by Japan Tissue Engineering Co., Ltd.) at 37° C. for 24 hours.
Thereafter, the medium was exchanged, and 50 μL of a sample prepared with purified water (2% preparation solution of GDS23) was applied to the surfaces of the stratum corneum, followed by continuous culture for 24 hours. The control for comparison was applied with purified water only.
Subsequently, the sample on the surface of the stratum corneum of the epidermal model was sucked up with a sterilized cotton swab to remove the excess sample, and then the epidermal model was continuously cultured without newly applying the sample on the surface of the stratum corneum, and the epidermal model was collected 9 days after the sample was applied.
After the blocking agent was aspirated, an anti-loricrin antibody (manufactured by Proteintech Japan) (diluted 50 times with a 3% BSA/PBS solution) was added to the section, and the primary antibody reaction was carried out overnight at 4° C. […]

[5] = system: loricrin; assay: Test for detecting production of loricrin, loricrin immunostaining method; assay type: cell-based, human; conditions: LabCyte EPI-MODEL24 6D, 50 μL of 2% GDS23 solution applied for 24 hours, collected 9 days after application, vs purified water control
Protocol: A test for detecting the production of loricrin encoded by the LOR genes was performed using two staining methods: an immunostaining method using an anti-loricrin antibody and a hematoxylin-eosin staining method.
Treatment of epidermal model Three-dimensional cultured human epidermal model (LabCyte EPI-MODEL24 6D: manufactured by Japan Tissue Engineering Co., Ltd.) was cultured in a medium (assay medium: manufactured by Japan Tissue Engineering Co., Ltd.) at 37° C. for 24 hours. […]
After the blocking agent was aspirated, an anti-loricrin antibody (manufactured by Proteintech Japan) (diluted 50 times with a 3% BSA/PBS solution) was added to the section, and the primary antibody reaction was carried out overnight at 4° C. Thereafter, a Goat Anti-Rabbit IgG H&L (Alexa Fluor (registered trademark) 488 antibody (manufactured by Abcam PLC) (diluted 250 times with a 3% BSA/PBS solution) was added thereto, and the secondary antibody reaction was carried out for 1 hour at room temperature in a dark place. And then, nuclear staining was performed with DAPI diluted 200 times with a 3% BSA/PBS solution. A fluorescence microscope (BZ-X810, KEYENCE) was then used to observe the green and blue fluorescence. The green fluorescence indicates the presence of loricrin. The blue fluorescence stains the nuclei of the epidermal model to confirm that the cells are normal.

[6] = system: CERS3 gene; assay: Test for amplification of mRNA expression of CERS3 gene (quantitative real-time PCR, GAPDH internal standard); assay type: cell-based, human; conditions: NHEKs, GDS23 50 μM, culture time 36 hr, control = 1
Protocol: as §1, §2, §3, §4

[7] = system: PPARA gene; assay: Test for amplification of mRNA expression of PPARA gene (quantitative real-time PCR, GAPDH internal standard); assay type: cell-based, human; conditions: NHEKs, GDS23 50 μM, culture time 24, 30, 36 hr, control = 1
Protocol: as §1, §2, §3, §4

Row | Substance | relative expression level of IVL genes [1] | relative expression level of LOR genes [2] | relative expression level of SULT2B1 genes ([3]; GDM12 100 μM, culture time 30 hr) | abnormality in the cells of the epidermal model (blue fluorescence, hematoxylin-eosin staining) [4] | production amount of loricrin in the stratum corneum (green fluorescence) [5] | relative expression level of CERS3 genes [6] | relative expression level of PPARA genes [7] | relative expression level of SULT2B1 genes ([3]; GDS23 50 μM, culture time 24 hr)
1 | PEG-12 glycerol dimyristate [GDM12] | about 1.5 times that of the control | about 1.3 times that of the control | about 1.6 times that of the control |  |  |  |  | 
2 | PEG-23 glycerol distearate [GDS23] |  |  |  | no abnormality in the cells of the epidermal model | higher than that of the control epidermal model | about 2 times that of the control | about 2.2 times that of the control | about 1.2 times that of the control

From US20250064712A1, “METHOD FOR AMPLIFYING EXPRESSION OF EPIDERMAL BARRIER FUNCTION-RELATED GENE” (J-Network, Inc., priority 2023, published 2025)
